{"source": "paper PMC5218480", "about": "(PLoS ONE, 2017)", "test_system": "MV-4-11 cells", "experiment": "Gene expression microarray analysis (Affymetrix PrimeView) and GSEA", "type": "cell-based, human", "design": "RFU PODN (11730768_x_at) / Fold change /veh PODN (11730768_x_at) / RFU LINC00158 (11744669_a_at) / Fold change /veh LINC00158 (11744669_a_at) / RFU DUSP10 (11751237_a_at) / Fold change /veh DUSP10 (11751237_a_at) / RFU ID3 (11757404_x_at) / Fold change /veh ID3 (11757404_x_at) / RFU PLEKHG5 (11737974_s_at) / Fold change /veh PLEKHG5 (11737974_s_at) / RFU LRRC4B (11730491_at) / Fold change /veh LRRC4B (11730491_at) / RFU GIMAP4 (11747438_a_at) / Fold change /veh GIMAP4 (11747438_a_at) / RFU KRT8 (11758183_x_at) / Fold change /veh KRT8 (11758183_x_at) / RFU CNN1 (11734310_a_at) / Fold change /veh CNN1 (11734310_a_at) / RFU VPS37D (11726825_at) / Fold change /veh VPS37D (11726825_at) / RFU C10orf10 (11716522_x_at) / Fold change /veh C10orf10 (11716522_x_at) / RFU KIR2DL2 /// KIR2DL4 /// KIR2DL5A /// KIR2DL5B /// KIR2DS1 /// KIR2DS2 /// KIR2DS3 /// KIR2DS4 /// KIR3DL3 /// KIR3DL3 /// KIR3DS1 (11738374_at) / Fold change /veh KIR2DL2 /// KIR2DL4 /// KIR2DL5A /// KIR2DL5B /// KIR2DS1 /// KIR2DS2 /// KIR2DS3 /// KIR2DS4 /// KIR3DL3 /// KIR3DL3 /// KIR3DS1 (11738374_at) / RFU C1QL1 (11718748_at) / Fold change /veh C1QL1 (11718748_at) / RFU TMPRSS4 (11747572_a_at) / Fold change /veh TMPRSS4 (11747572_a_at) / RFU HAMP (11756126_x_at) / Fold change /veh HAMP (11756126_x_at) / RFU RNFT2 (11725882_a_at) / Fold change /veh RNFT2 (11725882_a_at) / RFU NR4A2 (11747474_a_at) / Fold change /veh NR4A2 (11747474_a_at) / RFU ABCC12 (11746883_a_at) / Fold change /veh ABCC12 (11746883_a_at) / RFU TMEM136 (11760407_x_at) / Fold change /veh TMEM136 (11760407_x_at) / RFU CLDN22 /// WWC2 (11732394_at) / Fold change /veh CLDN22 /// WWC2 (11732394_at) / RFU HLA-DPB1 (11760878_x_at) / Fold change /veh HLA-DPB1 (11760878_x_at) / RFU SPINT1 (11716480_a_at) / Fold change /veh SPINT1 (11716480_a_at) / RFU GAP43 (11754022_s_at) / Fold change /veh GAP43 (11754022_s_at) / RFU A4GNT (11735810_at) / Fold change /veh A4GNT (11735810_at) / RFU PRB3 (11715151_x_at) / Fold change /veh PRB3 (11715151_x_at) / RFU TUBB4B (11761932_at) / Fold change /veh TUBB4B (11761932_at) / RFU CAPN14 (11732068_a_at) / Fold change /veh CAPN14 (11732068_a_at) / RFU TMCC2 (11721928_a_at) / Fold change /veh TMCC2 (11721928_a_at) / RFU IRGQ (11745062_a_at) / Fold change /veh IRGQ (11745062_a_at) / RFU FAM174B (11720279_a_at) / Fold change /veh FAM174B (11720279_a_at) / RFU TMPRSS4 (11748680_a_at) / Fold change /veh TMPRSS4 (11748680_a_at) / RFU FAM212B (11763350_a_at) / Fold change /veh FAM212B (11763350_a_at) / RFU PLEKHG5 (11743358_a_at) / Fold change /veh PLEKHG5 (11743358_a_at) / RFU ZSCAN30 (11745921_a_at) / Fold change /veh ZSCAN30 (11745921_a_at) / RFU CMKLR1 (11741424_a_at) / Fold change /veh CMKLR1 (11741424_a_at) / RFU LOC101060620 /// MAPK8IP1 (11723275_at) / Fold change /veh LOC101060620 /// MAPK8IP1 (11723275_at) / RFU SPTSSB (11747773_x_at) / Fold change /veh SPTSSB (11747773_x_at) / RFU PRSS12 (11739890_at) / Fold change /veh PRSS12 (11739890_at) / RFU BIN1 (11741810_x_at) / Fold change /veh BIN1 (11741810_x_at) / RFU WNT11 (11732464_a_at) / Fold change /veh WNT11 (11732464_a_at) / RFU C10orf10 (11716521_a_at) / Fold change /veh C10orf10 (11716521_a_at) / RFU C5orf56 (11738089_at) / Fold change /veh C5orf56 (11738089_at) / RFU CYB561 (11721691_x_at) / Fold change /veh CYB561 (11721691_x_at) / RFU ANKRD19P (11752326_a_at) / Fold change /veh ANKRD19P (11752326_a_at) / RFU OR2T12 /// OR2T33 /// OR2T8 (11738714_s_at) / Fold change /veh OR2T12 /// OR2T33 /// OR2T8 (11738714_s_at) / RFU VCAN (11748164_a_at) / Fold change /veh VCAN (11748164_a_at) / RFU JSRP1 (11732532_at) / Fold change /veh JSRP1 (11732532_at) / RFU KRTAP10-11 (11738290_x_at) / Fold change /veh KRTAP10-11 (11738290_x_at) / RFU MYO3A (11730013_a_at) / Fold change /veh MYO3A (11730013_a_at) / RFU EBF3 (11725865_a_at) / Fold change /veh EBF3 (11725865_a_at) / RFU CAMK2N1 (11719241_x_at) / Fold change /veh CAMK2N1 (11719241_x_at) / RFU C5orf56 (11738088_a_at) / Fold change /veh C5orf56 (11738088_a_at) / RFU OLFML3 (11715873_a_at) / Fold change /veh OLFML3 (11715873_a_at) / RFU LOC100653217 /// NTM (11731650_a_at) / Fold change /veh LOC100653217 /// NTM (11731650_a_at) / RFU MAPK11 (11762145_a_at) / Fold change /veh MAPK11 (11762145_a_at) / RFU FIZ1 (11724087_x_at) / Fold change /veh FIZ1 (11724087_x_at) / RFU OASL (11726364_x_at) / Fold change /veh OASL (11726364_x_at) / RFU SOX15 (11748057_x_at) / Fold change /veh SOX15 (11748057_x_at) / RFU CD79A (11719716_a_at) / Fold change /veh CD79A (11719716_a_at) / RFU HIST1H1D (11736915_at) / Fold change /veh HIST1H1D (11736915_at) / RFU CASKIN2 (11723855_a_at) / Fold change /veh CASKIN2 (11723855_a_at) / RFU LOC730098 (11760151_x_at) / Fold change /veh LOC730098 (11760151_x_at) / RFU OR4N2 (11742367_at) / Fold change /veh OR4N2 (11742367_at) / RFU PRRT2 (11749266_a_at) / Fold change /veh PRRT2 (11749266_a_at) / RFU SNX32 (11753110_a_at) / Fold change /veh SNX32 (11753110_a_at) / RFU CDHR5 (11726645_a_at) / Fold change /veh CDHR5 (11726645_a_at) / RFU RCAN1 (11760418_a_at) / Fold change /veh RCAN1 (11760418_a_at) / RFU FAM167A (11723789_a_at) / Fold change /veh FAM167A (11723789_a_at) / RFU FAM26E (11764081_at) / Fold change /veh FAM26E (11764081_at) / RFU ISYNA1 (11749810_s_at) / Fold change /veh ISYNA1 (11749810_s_at) / RFU ACY1 (11761880_at) / Fold change /veh ACY1 (11761880_at) / RFU 11764098_at / Fold change /veh 11764098_at / RFU SAMD14 (11745864_x_at) / Fold change /veh SAMD14 (11745864_x_at) / RFU NPB (11741838_a_at) / Fold change /veh NPB (11741838_a_at) / RFU TMPRSS6 (11731388_a_at) / Fold change /veh TMPRSS6 (11731388_a_at) / RFU KRTAP10-2 (11738614_at) / Fold change /veh KRTAP10-2 (11738614_at) / RFU ARHGAP8 /// PRR5-ARHGAP8 (11727945_x_at) / Fold change /veh ARHGAP8 /// PRR5-ARHGAP8 (11727945_x_at) / RFU KRTAP5-7 /// NADSYN1 (11734609_at) / Fold change /veh KRTAP5-7 /// NADSYN1 (11734609_at) / RFU RASL12 (11751679_a_at) / Fold change /veh RASL12 (11751679_a_at) / RFU CDKN2B (11736163_a_at) / Fold change /veh CDKN2B (11736163_a_at) / RFU PRF1 (11729649_at) / Fold change /veh PRF1 (11729649_at) / RFU, ZNF638 /// ZNF638-IT1 / Fold change vs veh, ZNF638 /// ZNF638-IT1 / RFU, PANK3 / Fold change vs veh, PANK3 / RFU, SH3YL1 / Fold change vs veh, SH3YL1 / RFU, ZEB2 / Fold change vs veh, ZEB2 / RFU, NRIP1 / Fold change vs veh, NRIP1 / RFU, PTTG1IP / Fold change vs veh, PTTG1IP / RFU, CAPN2 / Fold change vs veh, CAPN2 / RFU, MED14 / Fold change vs veh, MED14 / RFU, SNORA58 / Fold change vs veh, SNORA58 / RFU, C1orf63 / Fold change vs veh, C1orf63 / RFU, LRRFIP1 / Fold change vs veh, LRRFIP1 / RFU, NDUFAF7 / Fold change vs veh, NDUFAF7 / RFU, SLC12A2 / Fold change vs veh, SLC12A2 / RFU, IBTK / Fold change vs veh, IBTK / RFU, ESF1 / Fold change vs veh, ESF1 / Fold change vs veh, TMEM50B / RFU, TAOK1 / Fold change vs veh, TAOK1 / RFU, ACBD3 / Fold change vs veh, ACBD3 / RFU, TMA16 / Fold change vs veh, TMA16 / RFU, RWDD3 / Fold change vs veh, RWDD3 / RFU, BCAT1 / Fold change vs veh, BCAT1 / RFU, EDEM3 / Fold change vs veh, EDEM3 / RFU, TMEM33 / Fold change vs veh, TMEM33 / RFU, WDR75 / Fold change vs veh, WDR75 / RFU, AHCTF1 / Fold change vs veh, AHCTF1 / RFU, TFRC / Fold change vs veh, TFRC / RFU, ZDHHC17 / Fold change vs veh, ZDHHC17 / RFU, NOM1 / Fold change vs veh, NOM1 / RFU, ARL8B / Fold change vs veh, ARL8B / RFU, ZBTB11 / Fold change vs veh, ZBTB11 / RFU, TAMM41 / Fold change vs veh, TAMM41 / RFU, KIAA1704 /// LOC100996395 / Fold change vs veh, KIAA1704 /// LOC100996395 / RFU, ING1 / Fold change vs veh, ING1 / RFU, TRMT61B / Fold change vs veh, TRMT61B / RFU, FUBP3 / Fold change vs veh, FUBP3 / RFU, TP53 / Fold change vs veh, TP53 / RFU, TNKS2 / Fold change vs veh, TNKS2 / RFU, ZFP14 / Fold change vs veh, ZFP14 / RFU, ACTR2 / Fold change vs veh, ACTR2 / RFU, PPP3R1 / Fold change vs veh, PPP3R1 / RFU, PIK3R1 / Fold change vs veh, PIK3R1 / RFU, HNRNPA1 / Fold change vs veh, HNRNPA1 / RFU, RNF170 / Fold change vs veh, RNF170 / RFU, ZNF28 / Fold change vs veh, ZNF28 / RFU, RNGTT / Fold change vs veh, RNGTT / RFU, OGT / Fold change vs veh, OGT / RFU, BRD1 / Fold change vs veh, BRD1 / RFU, MARS / Fold change vs veh, MARS / RFU, ZNF655 / Fold change vs veh, ZNF655 / RFU, FAHD1 / Fold change vs veh, FAHD1 / RFU, BDP1 / Fold change vs veh, BDP1 / RFU, LRRCC1 / Fold change vs veh, LRRCC1 / RFU, ARID1A / Fold change vs veh, ARID1A / RFU, ZNF146 / Fold change vs veh, ZNF146 / RFU, ZNF330 / Fold change vs veh, ZNF330 / RFU, GPN3 / Fold change vs veh, GPN3 / RFU, C9orf123 / Fold change vs veh, C9orf123 / RFU, N4BP2L2 / Fold change vs veh, N4BP2L2 / RFU, ARFIP1 / Fold change vs veh, ARFIP1 / RFU, FAM179B / Fold change vs veh, FAM179B / RFU, BCL10 / Fold change vs veh, BCL10 / RFU, UHRF1BP1L / Fold change vs veh, UHRF1BP1L / RFU, BET1 / Fold change vs veh, BET1 / RFU, CNOT2 / Fold change vs veh, CNOT2 / RFU, ZNF268 / Fold change vs veh, ZNF268 / Fold change vs veh, ZNF507 / RFU, DGCR2 / Fold change vs veh, DGCR2 / RFU, WDSUB1 / Fold change vs veh, WDSUB1 / Fold change vs veh, HSP90B1 /// MIR3652 / RFU, ADSS / Fold change vs veh, ADSS / RFU, GK / Fold change vs veh, GK / RFU, ZNF148 / Fold change vs veh, ZNF148 / RFU, TAF9 / Fold change vs veh, TAF9 / RFU, SLC1A5 / Fold change vs veh, SLC1A5 / RFU, SLMO2 / Fold change vs veh, SLMO2 / RFU, ABCC4 / Fold change vs veh, ABCC4 / RFU, LOC101060439 /// RAP1B / Fold change vs veh, LOC101060439 /// RAP1B / RFU, RFX7 / Fold change vs veh, RFX7 / RFU, GTPBP10 / Fold change vs veh, GTPBP10 / RFU, CNEP1R1 / Fold change vs veh, CNEP1R1 / RFU, BIVM-ERCC5 /// ERCC5 / Fold change vs veh, BIVM-ERCC5 /// ERCC5 / RFU, ILF3 / Fold change vs veh, ILF3 / RFU 11762660_at / Fold change /veh 11762660_at / RFU VCAN (11757783_s_at) / Fold change /veh VCAN (11757783_s_at) / RFU DDX43 (11728927_at) / Fold change /veh DDX43 (11728927_at) / RFU KRT8 (11758188_x_at) / Fold change /veh KRT8 (11758188_x_at) / RFU NKD1 (11759106_at) / Fold change /veh NKD1 (11759106_at) / RFU SRD5A1 (11742802_a_at) / Fold change /veh SRD5A1 (11742802_a_at) / RFU TPSAB1 /// TPSB2 (11721975_s_at) / Fold change /veh TPSAB1 /// TPSB2 (11721975_s_at) / RFU GSTM3 (11746129_a_at) / Fold change /veh GSTM3 (11746129_a_at) / RFU IL23R (11737362_x_at) / Fold change /veh IL23R (11737362_x_at) / RFU TMEM51 (11727254_a_at) / Fold change /veh TMEM51 (11727254_a_at) / RFU PIWIL2 (11732686_x_at) / Fold change /veh PIWIL2 (11732686_x_at) / RFU ORM1 (11744905_x_at) / Fold change /veh ORM1 (11744905_x_at) / RFU CCDC152 (11743942_at) / Fold change /veh CCDC152 (11743942_at) / RFU ECM1 (11717891_a_at) / Fold change /veh ECM1 (11717891_a_at) / RFU IL23R (11748794_a_at) / Fold change /veh IL23R (11748794_a_at) / RFU TNFAIP8L3 (11732012_x_at) / Fold change /veh TNFAIP8L3 (11732012_x_at) / RFU MBOAT4 (11741988_at) / Fold change /veh MBOAT4 (11741988_at) / RFU 11764193_at / Fold change /veh 11764193_at / RFU TMEM53 (11763286_at) / Fold change /veh TMEM53 (11763286_at) / RFU MAGEB2 (11727129_at) / Fold change /veh MAGEB2 (11727129_at) / RFU TMEM200A (11744735_a_at) / Fold change /veh TMEM200A (11744735_a_at) / RFU CCDC152 (11751479_a_at) / Fold change /veh CCDC152 (11751479_a_at) / RFU FAM211A (11726209_a_at) / Fold change /veh FAM211A (11726209_a_at) / RFU RGS16 (11746705_a_at) / Fold change /veh RGS16 (11746705_a_at) / RFU VCAN (11755009_s_at) / Fold change /veh VCAN (11755009_s_at) / RFU RHOB (11743442_s_at) / Fold change /veh RHOB (11743442_s_at) / RFU RGS16 (11720943_a_at) / Fold change /veh RGS16 (11720943_a_at) / RFU RGS16 (11720944_at) / Fold change /veh RGS16 (11720944_at) / RFU, VPS4B / Fold change vs veh, VPS4B / RFU, CREB1 / Fold change vs veh, CREB1 / RFU, DNAJC13 / Fold change vs veh, DNAJC13 / RFU, GNAQ / Fold change vs veh, GNAQ / RFU, CDK5R1 / Fold change vs veh, CDK5R1 / RFU, ZRANB3 / Fold change vs veh, ZRANB3 / RFU, CUL4A / Fold change vs veh, CUL4A / RFU, CCNY / Fold change vs veh, CCNY / RFU, UFL1 / Fold change vs veh, UFL1 / RFU, COG3 / Fold change vs veh, COG3 / RFU, DIAPH2 / Fold change vs veh, DIAPH2 / RFU, SKA2 / Fold change vs veh, SKA2 / RFU, AFF3 / Fold change vs veh, AFF3 / RFU, LMF1 / Fold change vs veh, LMF1 / RFU, IPO11 / Fold change vs veh, IPO11 / RFU, DFFB / Fold change vs veh, DFFB / RFU, FOXP1 / Fold change vs veh, FOXP1 / RFU, CARD8 / Fold change vs veh, CARD8 / RFU, STRN3 / Fold change vs veh, STRN3 / RFU, ADK / Fold change vs veh, ADK / RFU, RASSF2 / Fold change vs veh, RASSF2 / RFU, WIPF1 / Fold change vs veh, WIPF1 / RFU, LARP1B / Fold change vs veh, LARP1B / RFU, RASA1 / Fold change vs veh, RASA1 / RFU, RB1 / Fold change vs veh, RB1 / RFU, PPFIA1 / Fold change vs veh, PPFIA1 / RFU, MAT2A / Fold change vs veh, MAT2A / RFU, CCT5 / Fold change vs veh, CCT5 / RFU, WDR92 / Fold change vs veh, WDR92 / RFU, CUX1 / Fold change vs veh, CUX1 / RFU, TTC7A / Fold change vs veh, TTC7A / RFU, TMEM135 / Fold change vs veh, TMEM135 / RFU, DEPTOR / Fold change vs veh, DEPTOR / RFU, CPM / Fold change vs veh, CPM / RFU, DNAJB6 / Fold change vs veh, DNAJB6 / RFU, CACNA2D3 / Fold change vs veh, CACNA2D3 / RFU, DTX4 / Fold change vs veh, DTX4 / RFU, TFCP2 / Fold change vs veh, TFCP2 / RFU, GMCL1 /// GMCL1P1 / Fold change vs veh, GMCL1 /// GMCL1P1 / RFU, AEBP2 / Fold change vs veh, AEBP2 / RFU, SNHG1 /// SNORD22 /// SNORD25 /// SNORD26 /// SNORD27 /// SNORD28 /// SNORD29 /// SNORD31 / Fold change vs veh, SNHG1 /// SNORD22 /// SNORD25 /// SNORD26 /// SNORD27 /// SNORD28 /// SNORD29 /// SNORD31 / Fold change (Aza/veh), C12orf56 (ProbeSet 11735607_a_at) / Fold change (ACY-1035/veh), C12orf56 (ProbeSet 11735607_a_at) / Fold change (Aza/veh), FGFR1OP (ProbeSet 11751329_s_at) / Fold change (ACY-1035/veh), FGFR1OP (ProbeSet 11751329_s_at) / Fold change (Aza/veh), VPS36 (ProbeSet 11739960_a_at) / Fold change (ACY-1035/veh), VPS36 (ProbeSet 11739960_a_at) / RFU SYPL1 (11715823_x_at) / Fold change /veh SYPL1 (11715823_x_at) / RFU IGFBP7 (11715501_s_at) / Fold change /veh IGFBP7 (11715501_s_at) / RFU REEP3 (11722064_at) / Fold change /veh REEP3 (11722064_at) / RFU IGLL1 (11728026_x_at) / Fold change /veh IGLL1 (11728026_x_at): dose or concentration left out as unconfirmed", "settings": "ProbeSet 11725141_a_at; LIST B", "data": [{"smiles": "Nc1ncn([C@@H]2O[C@H](CO)[C@@H](O)[C@H]2O)c(=O)n1", "note": "[azacitidine]", "values": [{"measurement": "Fold change vs veh, FUBP3", "value": 0.84}]}]}
